Data taken from patent publication US20090118264A1, “Medicament having neovascularization promoting action” (Research Foundation Itsuu Laboratory, priority 2005, published 2009).
Where two headings read alike, the source gives them in different places.

Tests used:
[1] = test system: human umbilical vein endothelial cells and human skin fibroblasts; assay: Neovascularization in co-culture system of human umbilical vein endothelial cells and human skin fibroblasts (Neovascularization Kit), anti-CD31 immunostaining; format: cell-based
Procedure: The effect of LE135 on neovascularization was investigated by using a co-culture system of human umbilical vein endothelial cells and human skin fibroblasts (Neovascularization Kit, Kurabo Industries Ltd.). The vascular endothelial growth factor (VEGF) having a potent neovascularization action, added to 8 wells at a final concentration of 10 ng/ml, was used as positive control. Culture medium alone added to 8 wells without addition of the medicament was used as negative control. LE135 was added to the wells (8 wells for each group) at various concentrations, and culture was performed for 11 days. Immunostaining was performed by using anti-CD31 (PECAM1) antibodies directed to the vascular endothelial cells to determine the areas of luminal structures similar to blood vessels showing positive results and the numbers of branchings as an index of maturity of the formed luminal structures. The luminal structure areas and the numbers of branchings observed in the wells added with the medicament (LE135 or VEGF as the positive control) at various concentrations are shown in Table 1 in terms of relative values based on the luminal structure area and the number of branchings observed in the medicament-free wells as the negative control, which were taken as 100, respectively.
The effects of RAR antagonists other than LE135 on neovascularization were examined by using a co-culture system of human umbilical vein endothelial cells and human skin fibroblasts (Neovascularization Kit, Kurabo Industries Ltd.). The vascular endothelial growth factor (VEGF) having a potent neovascularization action added to wells at a final concentration of […] was used as positive control. Culture medium alone added to wells without addition of the medicament was used as negative control. Each compound was added at a concentration of 10^−9 mol/L, and culture was performed for 11 days. Immunostaining was performed by using anti-CD31 (PECAM1) antibodies directed to vascular endothelial cells to determine the areas of luminal structures similar to blood vessels showing positive results and the numbers of branchings as an index of maturity of the formed luminal structures. The luminal structure areas and the numbers of branchings observed in the wells added with the medicament at each given concentration are shown in the following table in terms of relative values based on the luminal structure area and the number of branchings observed in the medicament-free wells as the negative control, which were taken as 100, respectively.

[2] = test system: mouse lower extremity ischemia model; assay: Neovascularization experiment using mouse lower extremity ischemia model; format: in vivo, mice (C3H/HeNCrj)
Procedure: The femoral arteries on one side of 24 to 36-week old wild-type male mice (C3H/HeNCrj) were ligated and separated to prepare lower extremity ischemia model mice. […] The blood flow ratio between the affected extremities and the normal extremities was determined by the laser Doppler method on the day before the operation and 1, 3, 4, 5, 7, 9, 12, 14, 16, 18, 21, 24 and 28 days after the operation. […] In order to detect vascular endothelial cells in muscle tissues of the affected extremities on 21st day after the operation, immunostaining was performed by using anti-CD31 (PECAM1) antibodies.

[3] = test system: rabbit lower extremity ischemia model; assay: Intramuscular administration to rabbit lower extremity ischemia model, angiography; format: in vivo, rabbits; conditions: 10^−8 M LE135 solution injected into femoral muscles, 3 times per week; 28th day from the ligature; compared with control group (FIG. 2)
Procedure: The external iliac arteries on one side of rabbits were ligated and separated, and a 10^−8 M LE135 solution was injected into the femoral muscles on the same side to examine the neovascularization effect of the medicament. A solution of an organic solvent alone in the same amount as used for dissolution of LE135 was used as a negative control. The solutions were administered 3 times per week from the next day of the ligature. […] The blood vessels surrounded by the broken lines are considered to be collateral blood routes. In the figure, the white arrows* indicate the common iliac arteries.

[4] = Example 4: each compound 10^−9 mol/L, culture 11 days, relative value, negative control taken as 100, mean ± SD (Table 3)
[5] = LE135 10^−9 M, culture 11 days, relative value, negative control taken as 100, mean ± SD (Table 1)
[6] = LE135 10^−10 M, culture 11 days, relative value, negative control taken as 100, mean ± SD
[7] = LE135 10^−11 M, culture 11 days, relative value, negative control taken as 100, mean ± SD

Compound	Number of branching [1]	Number of branchings [1]	Area (luminal structure area) ([1]; Example 4: VEGF final concentration 10 μg/ml, culture 11 days, relative value, negative control taken as 100 (Table 3))	Area (luminal structure area) ([1]; VEGF final concentration 10 ng/ml, culture 11 days, relative value, negative control taken as 100 (Table 1))	Area (luminal structure area) [1, 4]	Number of branchings [1, 4]	Area (luminal structure area) [1, 5]	Number of branching [1, 5]	Area (luminal structure area) [1, 6]	Number of branching [1, 6]	Area (luminal structure area) [1, 7]	Number of branching [1, 7]	Promotion of neovascularization ([1]; concentrations of 10^−10 and 10^−9 M, versus negative control)	CD31-positive cell count per field (200×) ([2]; mice orally administered with 5 mg/kg of LE135, muscle tissues of affected extremities, 21st day after the operation)	Numbers of endothelial cells (CD31-positive cells), in words ([2]; muscle tissues of affected extremities, 21st day after the operation, compared with no medicament-administered group)	Necrosis or amputation in the lower extremities ([2]; orally 5 mg/kg of LE135, 28th day after the operation, about 30% in no medicament-administered mice)	Blood flow ratio between affected and normal extremities (laser Doppler method) ([2]; orally 5 mg/kg of LE135, up to 28 days after the operation, compared with no medicament-administered mice (FIG. 1))	Formation of collateral blood routes (angiography) [3]	Blood vessel luminal structure area (in words) ([1]; Example 4: 10^−9 mol/L, versus negative control)
VEGF	154.20 ± 7.12	321.50 ± 42.17	202.52 ± 18.40	134.88 ± 4.42	–	–	–	–	–	–	–	–	–	–	–	–	–	–	–
CN1c2cc3c(cc2N=C(c2ccc(C(=O)O)cc2)c2ccccc21)C(C)(C)CCC3(C)C [LE135, 4-(5H-7,8,9,10-tetrahydro-5,7,7,10,10-pentamethylbenzo[e]naphtho[2,3-b][1,4]diazepin-13-yl)benzoic acid]	–	–	–	–	158.73 ± 6.89	170.09 ± 14.87	112.52 ± 4.68	150.31 ± 10.26	116.30 ± 5.69	137.40 ± 9.48	109.09 ± 4.89	118.70 ± 9.27	significantly promoted neovascularization	21.63 ± 4.12 per field (200×)	significantly higher numbers of endothelial cells	no mouse among the LE135-administered mice was observed to have necrosis or amputation	Significant improvement of the blood flow	evidently better formation of collateral blood routes	–
CN1c2cc3c(cc2N=C(c2ccc(C(=O)O)cc2)c2ccc4ccccc4c21)C(C)(C)CCC3(C)C [LE540]	–	–	–	–	172.02 ± 22.00	195.33 ± 24.49	–	–	–	–	–	–	–	–	–	–	–	–	significantly increased the blood vessel luminal structure area
